Measured values from article PMC11436758, “Computer-aided drug design to generate a unique antibiotic family” (Nature Communications, 2024).
Several values for one entry are separate records, joined by “and”; a condition that tells them apart may be missing. Identical values can stand only once.

How the values were obtained:
[1] = system: MRSA MMX 2119 (NRS23, USA100) and MRSA MMX 4675 (ATCC BAA-1556, USA300); assay: Time kill; format: cell-based, S. aureus; details: for drop in surviving bacteria: two strains of MRSA
Method: We also sought to determine if DNM0547 was bacteriostatic or bactericidal. Time kill experiments were carried out using increasing doses of DNM0547 against two different strains of MRSA.
Supplementary Figure 5. Time kill of DNM0547 versus S. aureus. The time kill of DNM0547
4675 (ATCC BAA-1556, USA300) were determined. Representative experiments are shown. […]

[2] = system: MRSA (ATCC 33591); assay: Rabbit ischemic ear wound model of infection by MRSA, topical treatment; format: in vivo, New Zealand White rabbits; details: for % wound closure / wound size (mean) / Wound size (mm2): Fig 2a; for Wound size (mm2): individual wounds
Method: New Zealand White rabbits from Charles River were employed for this study. Both male and female rabbits were used; sample size prevented disaggregation of data by sex. Investigators were blinded to group allocation, data collection, and data analysis. Food and water were given ad libidum and animals were acclimatized for 7 days with photoperiods of alternating 12 h light and dark at 21 °C in relative humidity of 40–50%. The formulation for delivery of DNM compounds was Glaxal base (WellSpring Pharmaceutical Canada Corp., Oakville, Canada). Formulation was performed by dissolving compound in Glaxal base to give final concentrations of 1% or 2% DNM compound (w/v). The analgesic (Buprenex 0.02 mg/kg sc) and anesthesia (isoflurane (0.5–5% with oxygen carrier 0.5–2 L/min) were used as required during procedures. An ischemia wound healing model was conducted surgically. Each wound was inoculated with 50 μl of 2 × 10^7 CFU/mL MRSA (ATCC #33591) and dressed. After 1 day, wounds were treated with either 50 μl control cream containing vehicle or 50 μl cream containing compound daily. Wounds were assessed and observations recorded using the Draize scoring system. Digital photographs of each wound were obtained and documented.

[3] = system: MRSA (ATCC 33591); assay: Mouse cellulitis model of infection, topical treatment; format: in vivo, SKH1 mice; details: for Wound size (mm2), Mean / Wound size (mm2): Fig 2d
Method: SKH1 mice from Charles River were used and male and female mice were utilized, sample size prevented disaggregation of data by sex. Mice were housed with a 12 h light and dark cycle at 21 °C in relative humidity of 40–50%. Investigators were blinded to group allocation, data collection, and data analysis. The formulation for delivery of DNM0547 was Glaxal base (WellSpring Pharmaceutical Canada Corp., Oakville, Canada). Formulation was performed by dissolving compound in Glaxal base to give final concentrations of 2% DNM0547 compound (w/v). MRSA (ATCC #33591) were grown to mid-log phase, concentrated by centrifugation and suspended in sterile PBS at a stock concentration of 2 × 10^11 CFU/mL.
Four week old mice were anesthetized and injected intradermally with 1 × 10^8 CFU/mouse. 4 h after injection, mice were treated with 50 μl 2% DNM0547 cream, or excipient alone. Lesion dimensions were recorded daily for seven days. Food and water were given ad libidum. On day seven, mice were euthanized and the lesion area aseptically removed to 3 mL sterile PBS. The samples were homogenized and serial dilutions were plated on blood agar and incubated at 37 °C to determine CFU. The mouse model of skin infection was performed and evaluated with Washington Biotechnology Inc (Baltimore, MD, USA).

[4] = system: Primary Skin Fibroblasts cells; assay: Cell culture toxicity, Alamar Blue HS fluorescence; format: cell-based; details: Suppl Fig 9, Primary Skin Fibroblasts cells
[5] = 2% cream for 7 days, versus vehicle control

CC(C)c1cc(Cl)ccc1-c1cc(-c2nnn[nH]2)c(-c2ccc(Cl)cc2C(C)C)s1 [DNM0547]
drop in surviving bacteria ([1]; 2x MIC, at 2 h and 6 h): three
drop in surviving bacteria ([1]; 4x and 8x MIC, at 2 h): three
CFU/mL ([1]; Suppl Fig 5a, S. aureus MMX 2119, 2X, 0 hr): 7.70E+05 CFU/mL
CFU/mL ([1]; Suppl Fig 5a, S. aureus MMX 2119, 2X, 2 hr): 6.00E+02 CFU/mL
CFU/mL ([1]; Suppl Fig 5a, S. aureus MMX 2119, 2X, 6 hr): 3.00E+02 CFU/mL
CFU/mL ([1]; Suppl Fig 5a, S. aureus MMX 2119, 2X, 24 hr): LOD
CFU/mL ([1]; Suppl Fig 5a, S. aureus MMX 2119, 4X, 0 hr): 7.70E+05 CFU/mL
CFU/mL ([1]; Suppl Fig 5a, S. aureus MMX 2119, 4X, 2 hr): 4.50E+02 CFU/mL
CFU/mL ([1]; Suppl Fig 5a, S. aureus MMX 2119, 4X, 6 hr): 1.50E+02 CFU/mL
CFU/mL ([1]; Suppl Fig 5a, S. aureus MMX 2119, 4X, 24 hr): LOD
CFU/mL ([1]; Suppl Fig 5a, S. aureus MMX 2119, 8X, 0 hr): 7.70E+05 CFU/mL
CFU/mL ([1]; Suppl Fig 5a, S. aureus MMX 2119, 8X, 2 hr): LOD
CFU/mL ([1]; Suppl Fig 5a, S. aureus MMX 2119, 8X, 6 hr): LOD
CFU/mL ([1]; Suppl Fig 5a, S. aureus MMX 2119, 8X, 24 hr): LOD
CFU/mL ([1]; Suppl Fig 5b, S. aureus MMX 4657, 2X, 0 hr): 1.01E+06 CFU/mL
CFU/mL ([1]; Suppl Fig 5b, S. aureus MMX 4657, 2X, 2 hr): 1.05E+03 CFU/mL
CFU/mL ([1]; Suppl Fig 5b, S. aureus MMX 4657, 2X, 6 hr): LOD
CFU/mL ([1]; Suppl Fig 5b, S. aureus MMX 4657, 2X, 24 hr): LOD
CFU/mL ([1]; Suppl Fig 5b, S. aureus MMX 4657, 4X, 0 hr): 1.01E+06 CFU/mL
CFU/mL ([1]; Suppl Fig 5b, S. aureus MMX 4657, 4X, 2 hr): 2.50E+02 CFU/mL
CFU/mL ([1]; Suppl Fig 5b, S. aureus MMX 4657, 4X, 6 hr): LOD
CFU/mL ([1]; Suppl Fig 5b, S. aureus MMX 4657, 4X, 24 hr): LOD
CFU/mL ([1]; Suppl Fig 5b, S. aureus MMX 4657, 8X, 0 hr): 1.01E+06 CFU/mL
CFU/mL ([1]; Suppl Fig 5b, S. aureus MMX 4657, 8X, 2 hr): LOD
CFU/mL ([1]; Suppl Fig 5b, S. aureus MMX 4657, 8X, 6 hr): LOD
CFU/mL ([1]; Suppl Fig 5b, S. aureus MMX 4657, 8X, 24 hr): LOD
% wound closure ([2]; Day 1): 0%
wound size (mean) ([2]; Day 1): 30.44 mm2
% wound closure ([2]; Day 3): 2.62%
wound size (mean) ([2]; Day 3): 29.642 mm2
% wound closure ([2]; Day 6): 5.42%
wound size (mean) ([2]; Day 6): 28.797 mm2
% wound closure ([2]; Day 9): 32.45%
wound size (mean) ([2]; Day 9): 20.563 mm2
% wound closure ([2]; Day 12): 53.18%
wound size (mean) ([2]; Day 12): 14.254 mm2
% wound closure ([2]; Day 15): 73.94%
wound size (mean) ([2]; Day 15): 7.93 mm2
% wound closure ([2]; Day 18): 87.25%
wound size (mean) ([2]; Day 18): 3.88 mm2
% wound closure ([2]; Day 21): 97.93%
wound size (mean) ([2]; Day 21): 0.636 mm2
Wound size (mm2) ([2]; Day 1): 29.51 mm2 and 29.83 mm2 and 28.32 mm2 and 27.53 mm2 and 32.52 mm2 and 34.03 mm2 and 26.69 mm2 and 25.2 mm2 and 36.13 mm2 and 34.64 mm2
Wound size (mm2) ([2]; Day 3): 31.06 mm2 and 29.08 mm2 and 27.25 mm2 and 24.3 mm2 and 31.24 mm2 and 33.16 mm2 and 27.53 mm2 and 25.7 mm2 and 33.48 mm2 and 33.62 mm2
Wound size (mm2) ([2]; Day 6): 28.85 mm2 and 31.18 mm2 and 26.33 mm2 and 24.01 mm2 and 30.73 mm2 and 32.69 mm2 and 26.4 mm2 and 21.93 mm2 and 33.19 mm2 and 32.66 mm2
Wound size (mm2) ([2]; Day 9): 23.09 mm2 and 21.11 mm2 and 22.61 mm2 and 20.99 mm2 and 19.44 mm2
Wound size (mm2) ([2]; Day 15): 10.17 mm2 and 8.72 mm2 and 14.95 mm2 and 20.1 mm2 and 0.9 mm2 and 0.08 mm2 and 1.02 mm2 and 4 mm2 and 10.8 mm2 and 8.56 mm2
Wound size (mm2) ([2]; Day 18): 8.29 mm2 and 0.93 mm2 and 7.78 mm2 and 10.81 mm2 and 0.41 mm2 and 0 mm2 and 0.53 mm2 and 2.2 mm2 and 3.09 mm2 and 4.76 mm2
Wound size (mm2) ([2]; Day 21): 0 mm2 (8×) and 5.12 mm2 and 1.24 mm2
reduction in bacterial survival as compared to vehicle control ([2]; quantitative microbiology at day 14, topical): > 99%
bacteria in the wound (CFUs per gram of tissue at end of study) ([2]; topical 2%): effectively eliminated bacteria from the wound
day of complete wound closure ([2]; topical 2%): ≤ 21 days
wound closure ([2]; topical for 14 days, versus vehicle control): significantly improved wound closure
reduction in wound size [3, 5]: 4 fold
reduction of bacterial load [3, 5]: > 98%
CFUs ([3]; Fig 2e, individual animals): 66 CFUs and 3900 CFUs and 0 CFUs (2×) and 57 CFUs
Wound size (mm2), Mean ([3]; Day 1): 14.643 mm2
Wound size (mm2), Mean ([3]; Day 2): 24.6313 mm2
Wound size (mm2), Mean ([3]; Day 3): 14.2828 mm2
Wound size (mm2), Mean ([3]; Day 4): 14.2975 mm2
Wound size (mm2), Mean ([3]; Day 5): 12.6205 mm2
Wound size (mm2), Mean ([3]; Day 6): 11.8387 mm2
Wound size (mm2), Mean ([3]; Day 7): 14.2246 mm2
Wound size (mm2) ([3]; individual animals, Day 1): 12.5374 mm2 and 14.3799 mm2 and 14.54 mm2 and 15.8884 mm2 and 15.87 mm2
Wound size (mm2) ([3]; individual animals, Day 2): 25.0932 mm2 and 30.8908 mm2 and 21.02 mm2 and 14.3128 mm2 and 31.84 mm2
Wound size (mm2) ([3]; individual animals, Day 3): 14.5538 mm2 and 21.2799 mm2 and 9.59 mm2 and 10.8726 mm2 and 15.12 mm2
Wound size (mm2) ([3]; individual animals, Day 4): 15.4052 mm2 and 19.652 mm2 and 13.70 mm2 and 11.5756 mm2 and 11.16 mm2
Wound size (mm2) ([3]; individual animals, Day 5): 9.8797 mm2 and 13.6551 mm2 and 8.00 mm2 and 10.1736 mm2 and 21.40 mm2
Wound size (mm2) ([3]; individual animals, Day 6): 12.7154 mm2 and 14.2046 mm2 and 11.72 mm2 and 7.547 mm2 and 13.01 mm2
Wound size (mm2) ([3]; individual animals, Day 7): 15.755 mm2 and 18.619 mm2 and 16.44 mm2 and 5.851 mm2 and 14.46 mm2
Fluorescence (FI) ([4]; Conc. 2 ng/ml): 921 FI and 814 FI and 995 FI
Fluorescence (FI) ([4]; Conc. 100 ng/ml): 911 FI and 909 FI and 816 FI and 747 FI
Fluorescence (FI) ([4]; Conc. 2500 ng/ml): 895 FI and 904 FI and 819 FI and 790 FI
Fluorescence (FI) ([4]; Conc. 5000 ng/ml): 907 FI and 820 FI and 922 FI and 909 FI
Fluorescence (FI) ([4]; Conc. 20000 ng/ml): 577 FI and 548 FI and 542 FI and 552 FI
Fluorescence (FI) ([4]; Conc. 40000 ng/ml): 62 FI and 57 FI and 54 FI
Fluorescence (FI) ([4]; Conc. 100000 ng/ml): 7 FI and 5 FI
